Marks after values point to notes of the source that are not given here.
Test system: cancer-related neuropathic pain
Assay: Open label dose escalation study of flupirtine, case studies JE and RM
Conditions: flupirtine 100 mg qid; for SCORE RELATIONSHIPS / SCORE MOOD / SCORE ENJOYMENT / SCORE SLEEP / SCORE WALKING / SCORE GENERAL ACTIVITY / SCORE TOTAL ACTIVITY: pain interference 1-10; for SCORE RELATIONSHIPS / SCORE NAUSEA / WHO PERFORMANCE STATUS: day 1 baseline 3; for SCORE MOOD / SCORE POOR APPETITE / SCORE UN[…] GAIT / PAIN SCORE RIGHT NOW: day 1 baseline 4; for SCORE ENJOYMENT / SCORE SLEEP: day 1 baseline 6; for SCORE WALKING: day 1 baseline 7; for SCORE GENERAL ACTIVITY / SCORE TOTAL ACTIVITY / AVERAGE PAIN LAST 24 HOURS: day 1 baseline 8; for SCORE CONSTIPATION / SCORE INDIGESTION / SCORE POOR CONCENTRATION / SCORE DROWSINESS / SCORE NAUSEA / SCORE POOR APPETITE / SCORE UN[…] GAIT: scale 1-4; for SCORE CONSTIPATION / SCORE INDIGESTION / SCORE POOR CONCENTRATION: day 1 baseline 1; for SCORE DROWSINESS: day 1 baseline 2; for LEAST PAIN LAST 24 HRS / PAIN SCORE RIGHT NOW / AVERAGE PAIN LAST 24 HOURS / WORST PAIN SCORE LAST 24 HOURS: scale to 10; for LEAST PAIN LAST 24 HRS / electric pain score / freezing pain score / numbness score / score for increased pain due to touch / score for increased pain due to weather changes / squeezing pain score: day 1 baseline 0; for WORST PAIN SCORE LAST 24 HOURS / PERCENTAGE PAIN RELIEF LAST 24 HOURS: day 1 baseline 10; for WHO PERFORMANCE STATUS: 0=fully active, 4=completely disabled; for neuropathic discriminant function score: >0 = neuropathic, day 1 baseline 0.262; for score for overly sensitive to touch / tingling pain score: day 1 baseline 20; for burning pain score / overwhelming pain score: day 1 baseline 90; for for shooting pain score / unpleasant pain score: day 1 baseline 100

`CCOC(=O)Nc1ccc(NCc2ccc(F)cc2)nc1N` [flupirtine] was tested, and the “SCORE RELATIONSHIPS” value (RM day 5) was 3, the “SCORE MOOD” value (RM day 5) was 3 and the “SCORE ENJOYMENT” value (RM day 5) was 6. The “SCORE SLEEP” value (RM day 5) was 6, the “SCORE WALKING” value (RM day 5) was 5 and the “SCORE GENERAL ACTIVITY” value (RM day 5) was 6. For the same compound, the “SCORE TOTAL ACTIVITY” value (RM day 5) was 6, the “SCORE CONSTIPATION” value (RM day 5) was 2 and the “SCORE INDIGESTION” value (RM day 5) was 1. For the same compound, the “SCORE POOR CONCENTRATION” value (RM day 5) was 2, the “SCORE DROWSINESS” value (RM day 5) was 1 and the “SCORE NAUSEA” value (RM day 5) was 1. For the same compound, the “SCORE POOR APPETITE” value (RM day 5) was 2, the “SCORE UN[…] GAIT” value (RM day 5) was 4 and the “LEAST PAIN LAST 24 HRS” value (RM day 5) was 2. The “PAIN SCORE RIGHT NOW” value (RM day 5) was 5, the “AVERAGE PAIN LAST 24 HOURS” value (RM day 5) was 8 and the “WORST PAIN SCORE LAST 24 HOURS” value (RM day 5) was 9. For the same compound, the “WHO PERFORMANCE STATUS” value (RM day 6) was 3, the “neuropathic discriminant function score” value (RM day 6) was −1.168 and the electric pain score (RM day 6) was 0. The freezing pain score (RM day 6) was 0, the numbness score (RM day 6) was 0 and the “score for increased pain due to touch” value (RM day 6) was 0. The “score for increased pain due to weather changes” value (RM day 6) was 0, the squeezing pain score (RM day 6) was 0 and the “PERCENTAGE PAIN RELIEF LAST 24 HOURS” value (RM day 6) was 50%. For the same compound, the “score for overly sensitive to touch” value (RM day 6) was 0, the tingling pain score (RM day 6) was 0 and the burning pain score (RM day 6) was 0. For the same compound, the overwhelming pain score (RM day 6) was 40, the “for shooting pain score” value (RM day 6) was 0 and the unpleasant pain score (RM day 6) was 60. The “SCORE RELATIONSHIPS” value (RM day 6) was 3, the “SCORE MOOD” value (RM day 6) was 4 and the “SCORE ENJOYMENT” value (RM day 6) was 6. The “SCORE SLEEP” value (RM day 6) was 4, the “SCORE WALKING” value (RM day 6) was 6 and the “SCORE GENERAL ACTIVITY” value (RM day 6) was 6. The “SCORE TOTAL ACTIVITY” value (RM day 6) was 6, the “SCORE CONSTIPATION” value (RM day 6) was 2 and the “SCORE INDIGESTION” value (RM day 6) was 1. The “SCORE POOR CONCENTRATION” value (RM day 6) was 2, the “SCORE DROWSINESS” value (RM day 6) was 1 and the “SCORE NAUSEA” value (RM day 6) was 2. For the same compound, the “SCORE POOR APPETITE” value (RM day 6) was 2, the “SCORE UN[…] GAIT” value (RM day 6) was 4 and the “LEAST PAIN LAST 24 HRS” value (RM day 6) was 2. For the same compound, the “PAIN SCORE RIGHT NOW” value (RM day 6) was 6, the “AVERAGE PAIN LAST 24 HOURS” value (RM day 6) was 4 and the “WORST PAIN SCORE LAST 24 HOURS” value (RM day 6) was 7. For the same compound, the “WHO PERFORMANCE STATUS” value (RM day 7) was 3, the “neuropathic discriminant function score” value (RM day 7) was −1.168 and the electric pain score (RM day 7) was 0. The freezing pain score (RM day 7) was 0, the numbness score (RM day 7) was 0 and the “score for increased pain due to touch” value (RM day 7) was 0. The “score for increased pain due to weather changes” value (RM day 7) was 0, the squeezing pain score (RM day 7) was 0 and the “PERCENTAGE PAIN RELIEF LAST 24 HOURS” value (RM day 7) was 75%. For the same compound, the “score for overly sensitive to touch” value (RM day 7) was 0, the tingling pain score (RM day 7) was 0 and the burning pain score (RM day 7) was 0. The overwhelming pain score (RM day 7) was 20, the “for shooting pain score” value (RM day 7) was 0 and the unpleasant pain score (RM day 7) was 50. The “SCORE RELATIONSHIPS” value (RM day 7) was 3, the “SCORE MOOD” value (RM day 7) was 6 and the “SCORE ENJOYMENT” value (RM day 7) was 6. The “SCORE SLEEP” value (RM day 7) was 6, the “SCORE WALKING” value (RM day 7) was 6 and the “SCORE GENERAL ACTIVITY” value (RM day 7) was 5. The “SCORE TOTAL ACTIVITY” value (RM day 7) was 5, the “SCORE CONSTIPATION” value (RM day 7) was 2 and the “SCORE INDIGESTION” value (RM day 7) was 1. For the same compound, the “SCORE POOR CONCENTRATION” value (RM day 7) was 2, the “SCORE DROWSINESS” value (RM day 7) was 1 and the “SCORE NAUSEA” value (RM day 7) was 2. For the same compound, the “SCORE POOR APPETITE” value (RM day 7) was 3, the “SCORE UN[…] GAIT” value (RM day 7) was 4 and the “LEAST PAIN LAST 24 HRS” value (RM day 7) was 0. The “PAIN SCORE RIGHT NOW” value (RM day 7) was 5, the “AVERAGE PAIN LAST 24 HOURS” value (RM day 7) was 3 and the “WORST PAIN SCORE LAST 24 HOURS” value (RM day 7) was 5. For the same compound, the “WHO PERFORMANCE STATUS” value (RM day 8) was 3, the electric pain score (RM day 8) was 0 and the freezing pain score (RM day 8) was 0. For the same compound, the numbness score (RM day 8) was 0, the “score for increased pain due to touch” value (RM day 8) was 0 and the “score for increased pain due to weather changes” value (RM day 8) was 0. The squeezing pain score (RM day 8) was 0, the “PERCENTAGE PAIN RELIEF LAST 24 HOURS” value (RM day 8) was 75* % and the “score for overly sensitive to touch” value (RM day 8) was 0*. The tingling pain score (RM day 8) was 0*, the burning pain score (RM day 8) was 0* and the overwhelming pain score (RM day 8) was 20*. The “for shooting pain score” value (RM day 8) was 0*, the unpleasant pain score (RM day 8) was 45* and the “SCORE RELATIONSHIPS” value (RM day 8) was 3. The “SCORE MOOD” value (RM day 8) was 4*, the “SCORE ENJOYMENT” value (RM day 8) was 4* and the “SCORE SLEEP” value (RM day 8) was 1*. For the same compound, the “SCORE WALKING” value (RM day 8) was 6*, the “SCORE GENERAL ACTIVITY” value (RM day 8) was 5* and the “SCORE TOTAL ACTIVITY” value (RM day 8) was 5*. The “SCORE CONSTIPATION” value (RM day 8) was 3, the “SCORE INDIGESTION” value (RM day 8) was 1 and the “SCORE POOR CONCENTRATION” value (RM day 8) was 2. The “SCORE DROWSINESS” value (RM day 8) was 1*, the “SCORE NAUSEA” value (RM day 8) was 3 and the “SCORE UN[…] GAIT” value (RM day 8) was 4. The “LEAST PAIN LAST 24 HRS” value (RM day 8) was 1 and the “PAIN SCORE RIGHT NOW” value (RM day 8) was 7.
